US20230303570A1, “KINASE INHIBITORS AND USES THEREOF” (ABM Therapeutics Corporation, priority 2020, published 2023)

Columns and labels:
SRC = target: T1, SRC (Homo sapiens, UniProt P12931); assay: In vitro kinase assay, SRC (Caliper EZ Reader conversion); assay type: biochemical; conditions: read-out: SRC IC50
T1 construct: purchased Carna Biosciences
Protocol: (§1) The effect of the compounds on the activity of SRC and PAK1 kinase were assessed. SRC and PAK1 kinase enzymes were obtained from Carna Biosciences.
Test compounds were dissolved in 100% DMSO to prepare a 20 mM stock. Compounds were stored in −20° C. and protected from light. […] Saracatinib was used as a positive control for the SRC assay, and FRAX597 was used as a positive control for the PAK1 assay. For the positive controls, a 3-fold serial dilution was made to achieve a total of 10 concentrations. 10 μL 1× Kinase buffer was used as the negative control.
First, 250 nL of the compounds at each dilution were transferred into wells of a 384-well plate. […] Then, 10 μL of enzyme mix was added to the 384-well plate, and the enzymes and compounds were pre-incubated at room temperature for 10 minutes. […] Then, 15 μL of substrate mix was added to a 384-well plate and reacted at room temperature for 30 min and 60 min. The reaction was stopped by adding 30 μL of the stop buffer, and the conversion rate was read using a Caliper EZ Reader.
(§2) Percent inhibition is calculated according to the following equation: […]
(§3) wherein “Conversion %_sample” is the conversion percentage value of the sample; “Conversion %_min” is the average conversion percentage value of the negative control; and “Conversion %_max” is the average conversion percentage value of the positive control.
(§4) The dose-response curve was fitted using GraphPad Prism software (version 5, […]), and the IC50 values for each compounds were calculated by log(inhibitor) vs. response using a variable slope program with the following formula:
(§5) Y=Bottom+(Top-Bottom)/(1+10^((Log IC50−X)*HillSlope))

PAK1 = PAK1 (Homo sapiens, UniProt Q13153); assay: In vitro kinase assay, PAK1 (Caliper EZ Reader conversion); assay type: biochemical; parameters: purchased Carna Biosciences
Protocol: as §1
Test compounds were dissolved in 100% DMSO to prepare a 20 mM stock. Compounds were stored in −20° C. and protected from light. A 100×solution of the compounds were prepared, from which 4-fold serial dilutions was made to achieve a total of 6 concentrations. Saracatinib was used as a positive control for the SRC assay, and FRAX597 was used as a positive control for the PAK1 assay. For the positive controls, a 3-fold serial dilution was made to achieve a total of 10 concentrations. 10 μL 1× Kinase buffer was used as the negative control.
First, 250 nL of the compounds at each dilution were transferred into wells of a 384-well plate. The PAK1 and SRC kinases were diluted to a 2.5×final concentration with 1×Kinase buffer. Then, 10 μL of enzyme mix was added to the 384-well plate, and the enzymes and compounds were pre-incubated at room temperature for 10 minutes. […] Then, 15 μL of substrate mix was added to a 384-well plate and reacted at room temperature for 30 min and 60 min. The reaction was stopped by adding 30 μL of the stop buffer, and the conversion rate was read using a Caliper EZ Reader.
as §2, §3, §4, §5

Chain of PAK1 (Q13153 whole entry): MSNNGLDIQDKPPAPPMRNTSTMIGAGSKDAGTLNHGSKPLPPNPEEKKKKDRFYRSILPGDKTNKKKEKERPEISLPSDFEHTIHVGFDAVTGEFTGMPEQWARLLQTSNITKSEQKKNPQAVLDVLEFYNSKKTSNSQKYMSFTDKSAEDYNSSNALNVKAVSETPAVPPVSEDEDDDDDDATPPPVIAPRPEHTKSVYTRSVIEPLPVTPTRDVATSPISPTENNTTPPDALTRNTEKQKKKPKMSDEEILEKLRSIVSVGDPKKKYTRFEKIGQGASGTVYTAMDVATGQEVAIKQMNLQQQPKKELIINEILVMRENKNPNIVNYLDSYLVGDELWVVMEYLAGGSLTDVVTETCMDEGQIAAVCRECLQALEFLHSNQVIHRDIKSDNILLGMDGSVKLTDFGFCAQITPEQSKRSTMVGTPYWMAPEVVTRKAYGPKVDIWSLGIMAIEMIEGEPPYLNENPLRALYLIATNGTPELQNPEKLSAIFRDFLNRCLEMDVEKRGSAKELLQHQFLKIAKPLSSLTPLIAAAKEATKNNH
T1 sequence (P12931 whole entry): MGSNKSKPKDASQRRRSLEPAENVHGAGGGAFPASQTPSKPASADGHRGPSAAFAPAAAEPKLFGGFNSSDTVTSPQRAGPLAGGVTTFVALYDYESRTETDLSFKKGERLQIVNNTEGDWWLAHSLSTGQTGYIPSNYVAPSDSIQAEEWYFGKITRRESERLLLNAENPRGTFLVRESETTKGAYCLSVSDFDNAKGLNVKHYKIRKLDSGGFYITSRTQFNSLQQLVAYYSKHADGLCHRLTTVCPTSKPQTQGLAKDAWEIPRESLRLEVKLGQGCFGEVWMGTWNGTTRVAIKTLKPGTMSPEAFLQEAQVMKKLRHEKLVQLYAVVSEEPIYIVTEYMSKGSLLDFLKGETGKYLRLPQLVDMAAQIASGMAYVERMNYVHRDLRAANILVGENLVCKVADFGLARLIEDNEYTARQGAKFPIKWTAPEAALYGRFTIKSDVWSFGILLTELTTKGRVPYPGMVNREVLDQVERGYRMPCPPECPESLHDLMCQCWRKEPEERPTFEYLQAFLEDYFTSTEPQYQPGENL

| SMILES | IC50 (SRC) [µM] | IC50 (PAK1) [µM] |
| --- | --- | --- |
| CCNc1ncc2c(n1)N1CCN=C1C(c1ccc(-n3ccnc(C)c3=O)cc1Cl)=C2 [Compound 24, 1-(3-chloro-4-(2-(ethylamino)-8,9-dihydroimidazo[1′,2′:1,6]pyrido[2,3-d]pyrimidin-6-yl)phenyl)-3-methylpyrazin-2(1H)-one] | > 10 | 0.1 to 10 |
| Clc1cccc(Cl)c1C1=Cc2cnc(Nc3ccncc3)nc2N2CCN=C12 [Compound 52, 6-(2,6-dichlorophenyl)-N-(pyridin-4-yl)-8,9-dihydroimidazo[1′,2′:1,6]pyrido[2,3-d]pyrimidin-2-amine] | < 0.1 | > 10 |
| COc1nc(N2CCNCC2)ccc1Nc1ncc2c(n1)N1CCCN=C1C(c1ccc(Cl)cc1Cl)=C2 [Compound 70, 6-(2,4-dichlorophenyl)-N-(2-methoxy-6-(piperazin-1-yl)pyridin-3-yl)-9,10-dihydro-8H-pyrido[1,6-a:2,3-d′]dipyrimidin-2-amine] | 0.1 to 10 | > 10 |
| CNc1ncc2c(n1)N1CCN=C1C(c1ccc(-c3cncc(C)n3)cc1Cl)=C2 [Compound 25, 6-(2-chloro-4-(6-methylpyrazin-2-yl)phenyl)-N-methyl-8,9-dihydroimidazo[1′,2′:1,6]pyrido[2,3-d]pyrimidin-2-amine] | > 10 | 0.1 to 10 |
| Fc1cc(Nc2ncc3c(n2)N2CCN=C2C(c2ccc(Cl)cc2Cl)=C3)ccc1N1CCNCC1 [Compound 1, 6-(2,4-dichlorophenyl)-N-(3-fluoro-4-(piperazin-1-yl)phenyl)-8,9-dihydroimidazo[1′,2′:1,6]pyrido[2,3-d]pyrimidin-2-amine] | < 0.1 | < 0.1 |
| Clc1ccc(C2=Cc3cnc(NC4CCOCC4)nc3N3CCN=C23)c(Cl)c1 [Compound 5, 6-(2,4-dichlorophenyl)-N-(tetrahydro-2H-pyran-4-yl)-8,9-dihydroimidazo[1′,2′:1,6]pyrido[2,3-d]pyrimidin-2-amine] | > 10 | > 10 |
| COc1ccccc1C1=Cc2cnc(Nc3ccc(N4CCNCC4)cc3F)nc2N2CCN=C12 [Compound 31, N-(2-fluoro-4-(piperazin-1-yl)phenyl)-6-(2-methoxyphenyl)-8,9-dihydroimidazo[1′,2′:1,6]pyrido[2,3-d]pyrimidin-2-amine] | 0.1 to 10 | > 10 |
| Clc1ccccc1C1=Cc2cnc(Nc3cccnc3)nc2N2CCN=C12 [Compound 15, 6-(2-chlorophenyl)-N-(pyridin-3-yl)-8,9-dihydroimidazo[1′,2′:1,6]pyrido[2,3-d]pyrimidin-2-amine] | 0.1 to 10 | > 10 |
| Clc1cnccc1C1=Cc2cnc(Nc3ccncc3)nc2N2CCN=C12 [Compound 46, 6-(3-chloropyridin-4-yl)-N-(pyridin-4-yl)-8,9-dihydroimidazo[1′,2′:1,6]pyrido[2,3-d]pyrimidin-2-amine] | > 10 | > 10 |
| Fc1cc(Nc2ncc3c(n2)N2CCCN=C2C(c2ccc(Cl)cc2Cl)=C3)ccc1N1CCNCC1 [Compound 69, 6-(2,4-dichlorophenyl)-N-(3-fluoro-4-(piperazin-1-yl)phenyl)-9,10-dihydro-8H-pyrido[1,6-a:2,3-d′]dipyrimidin-2-amine] | < 0.1 | 0.1 to 10 |
| Fc1cc(Nc2ncc3c(n2)N2CCN=C2C(c2ccccc2Cl)=C3)ccc1N1CCNCC1 [Compound 11, 6-(2-chlorophenyl)-N-(3-fluoro-4-(piperazin-1-yl)phenyl)-8,9-dihydroimidazo[1′,2′:1,6]pyrido[2,3-d]pyrimidin-2-amine] | < 0.1 | 0.1 to 10 |
| OCc1cccc(Nc2ncc3c(n2)N2CCN=C2C(c2ccccc2Cl)=C3)c1 [Compound 13, (3-((6-(2-chlorophenyl)-8,9-dihydroimidazo[1′,2′:1,6]pyrido[2,3-d]pyrimidin-2-yl)amino)phenyl)methanol] | < 0.1 | 0.1 to 10 |
| C1=C(c2ccccn2)C2=NCCN2c2nc(Nc3ccncc3)ncc21 [Compound 44, 6-(pyridin-2-yl)-N-(pyridin-4-yl)-8,9-dihydroimidazo[1′,2′:1,6]pyrido[2,3-d]pyrimidin-2-amine] | 0.1 to 10 | > 10 |
| CCNc1ncc2c(n1)N1CCN=C1C(c1ccc(Cl)cc1Cl)=C2 [Compound 4, 6-(2,4-dichlorophenyl)-N-ethyl-8,9-dihydroimidazo[1′,2′:1,6]pyrido[2,3-d]pyrimidin-2-amine] | > 10 | > 10 |
| Clc1ccc(C2=Cc3cnc(Nc4ccncc4)nc3N3CCN=C23)c(Cl)c1 [Compound 47, 6-(2,4-dichlorophenyl)-N-(pyridin-4-yl)-8,9-dihydroimidazo[1′,2′:1,6]pyrido[2,3-d]pyrimidin-2-amine] | 0.1 to 10 | > 10 |
| COc1nc(N2CCNCC2)ccc1Nc1ncc2c(n1)N1CCN=C1C(C#Cc1cccnc1)=C2 [Compound 40, N-(2-methoxy-6-(piperazin-1-yl)pyridin-3-yl)-6-(pyridin-3-ylethynyl)-8,9-dihydroimidazo[1′,2′:1,6]pyrido[2,3-d]pyrimidin-2-amine] | > 10 | > 10 |
| Clc1cccc(Cl)c1C1=Cc2cnc(N3CCNCC3)nc2N2CCN=C12 [Compound 50, 6-(2,6-dichlorophenyl)-2-(piperazin-1-yl)-8,9-dihydroimidazo[1′,2′:1,6]pyrido[2,3-d]pyrimidine] | > 10 | > 10 |
| Fc1ccccc1Nc1ncc2c(n1)N1CCCN=C1C(c1cccc3[nH]ccc13)=C2 [Compound 57, N-(2-fluorophenyl)-6-(1H-indol-4-yl)-9,10-dihydro-8H-pyrido[1,6-a:2,3-d′]dipyrimidin-2-amine] | > 10 | > 10 |
| Fc1cc(Nc2ncc3c(n2)N2CCN=C2C(c2ccccc2)=C3)ccc1N1CCNCC1 [Compound 27, N-(3-fluoro-4-(piperazin-1-yl)phenyl)-6-phenyl-8,9-dihydroimidazo[1′,2′:1,6]pyrido[2,3-d]pyrimidin-2-amine] | < 0.1 | > 10 |
| CNc1ncc2c(n1)N1CCCN=C1C(c1ccc(N3CCN(C)C3=O)cc1Cl)=C2 [Compound 71, 1-(3-chloro-4-(2-(methylamino)-9,10-dihydro-8H-pyrido[1,6-a:2,3-d′]dipyrimidin-6-yl)phenyl)-3-methylimidazolidin-2-one] | > 10 | > 10 |
| Clc1ccccc1C1=Cc2cnc(Nc3ccncc3)nc2N2CCN=C12 [Compound 16, 6-(2-chlorophenyl)-N-(pyridin-4-yl)-8,9-dihydroimidazo[1′,2′:1,6]pyrido[2,3-d]pyrimidin-2-amine] | 0.1 to 10 | > 10 |
| CN1CCN(CCNc2ncc3c(n2)N2CCN=C2C(c2c(Cl)cccc2Cl)=C3)CC1 [Compound 48, 6-(2,6-dichlorophenyl)-N-(2-(4-methylpiperazin-1-yl)ethyl)-8,9-dihydroimidazo[1′,2′:1,6]pyrido[2,3-d]pyrimidin-2-amine] | 0.1 to 10 | > 10 |
| C1=C(c2ccccc2)C2=NCCN2c2nc(Nc3ccncc3)ncc21 [Compound 43, 6-phenyl-N-(pyridin-4-yl)-8,9-dihydroimidazo[1′,2′:1,6]pyrido[2,3-d]pyrimidin-2-amine] | 0.1 to 10 | > 10 |
| COc1nc(N2CCNCC2)ccc1Nc1ncc2c(n1)N1CCN=C1C(c1ccc(Cl)cc1Cl)=C2 [Compound 35, 6-(2,4-dichlorophenyl)-N-(2-methoxy-6-(piperazin-1-yl)pyridin-3-yl)-8,9-dihydroimidazo[1′,2′:1,6]pyrido[2,3-d]pyrimidin-2-amine] | 0.1 to 10 | 0.1 to 10 |
| Fc1cc(N2CCNCC2)ccc1Nc1ncc2c(n1)N1CCCN=C1C(c1ccc(Cl)cc1Cl)=C2 [Compound 68, 6-(2,4-dichlorophenyl)-N-(2-fluoro-4-(piperazin-1-yl)phenyl)-9,10-dihydro-8H-pyrido[1,6-a:2,3-d′]dipyrimidin-2-amine] | 0.1 to 10 | > 10 |
| COc1nc(N2CCNCC2)ccc1Nc1ncc2c(n1)N1CCN=C1C(c1ccc(-n3ccnc(C)c3=O)cc1)=C2 [Compound 42, 1-(4-(2-((2-methoxy-6-(piperazin-1-yl)pyridin-3-yl)amino)-8,9-dihydroimidazo[1′,2′:1,6]pyrido[2,3-d]pyrimidin-6-yl)phenyl)-3-methylpyrazin-2(1H)-one] | > 10 | > 10 |
